Laboratory results published in US20250122218A1, “MODULATORS OF CYSTIC FIBROSIS TRANSMEMBRANE CONDUCTANCE REGULATOR” (Vertex Pharmaceuticals Incorporated, priority 2022, published 2025).

Molecular target: T1, CFTR in F508del/MF-HBE cells (Homo sapiens, UniProt P13569, DEL508-508)
T1 construct: human bronchial epithelial (HBE) cells derived from CF subjects heterozygous for F508del and a minimal function CFTR mutation; endogenous in cells; host or cells: primary human bronchial epithelial cells from CF subjects (F508del/MF-HBE)
Assay: Ussing chamber assay of CFTR-mediated short-circuit currents (identification of potentiator compounds)
Format: cell-based
Conditions: potentiator incubated 18-24 hours at 37° C. in combination with 10 μM corrector, in the presence of 20% human serum, CFTR-mediated ISC
Method in brief: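 Short-circuit current was measured in Ussing chambers at 37° C, Vhold 0 mV, 30 μM apical amiloride. CFTR current was defined as the forskolin (20 μM) response relative to the current remaining after BPO/GlyH-101/inhibitor 172 (20 μM each). Before recording, cells had 18-24 h exposure to test potentiators with 10 μM corrector compound in 20% human serum.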

T1 sequence (P13569 with tags, fused parts or gaps DEL508-508): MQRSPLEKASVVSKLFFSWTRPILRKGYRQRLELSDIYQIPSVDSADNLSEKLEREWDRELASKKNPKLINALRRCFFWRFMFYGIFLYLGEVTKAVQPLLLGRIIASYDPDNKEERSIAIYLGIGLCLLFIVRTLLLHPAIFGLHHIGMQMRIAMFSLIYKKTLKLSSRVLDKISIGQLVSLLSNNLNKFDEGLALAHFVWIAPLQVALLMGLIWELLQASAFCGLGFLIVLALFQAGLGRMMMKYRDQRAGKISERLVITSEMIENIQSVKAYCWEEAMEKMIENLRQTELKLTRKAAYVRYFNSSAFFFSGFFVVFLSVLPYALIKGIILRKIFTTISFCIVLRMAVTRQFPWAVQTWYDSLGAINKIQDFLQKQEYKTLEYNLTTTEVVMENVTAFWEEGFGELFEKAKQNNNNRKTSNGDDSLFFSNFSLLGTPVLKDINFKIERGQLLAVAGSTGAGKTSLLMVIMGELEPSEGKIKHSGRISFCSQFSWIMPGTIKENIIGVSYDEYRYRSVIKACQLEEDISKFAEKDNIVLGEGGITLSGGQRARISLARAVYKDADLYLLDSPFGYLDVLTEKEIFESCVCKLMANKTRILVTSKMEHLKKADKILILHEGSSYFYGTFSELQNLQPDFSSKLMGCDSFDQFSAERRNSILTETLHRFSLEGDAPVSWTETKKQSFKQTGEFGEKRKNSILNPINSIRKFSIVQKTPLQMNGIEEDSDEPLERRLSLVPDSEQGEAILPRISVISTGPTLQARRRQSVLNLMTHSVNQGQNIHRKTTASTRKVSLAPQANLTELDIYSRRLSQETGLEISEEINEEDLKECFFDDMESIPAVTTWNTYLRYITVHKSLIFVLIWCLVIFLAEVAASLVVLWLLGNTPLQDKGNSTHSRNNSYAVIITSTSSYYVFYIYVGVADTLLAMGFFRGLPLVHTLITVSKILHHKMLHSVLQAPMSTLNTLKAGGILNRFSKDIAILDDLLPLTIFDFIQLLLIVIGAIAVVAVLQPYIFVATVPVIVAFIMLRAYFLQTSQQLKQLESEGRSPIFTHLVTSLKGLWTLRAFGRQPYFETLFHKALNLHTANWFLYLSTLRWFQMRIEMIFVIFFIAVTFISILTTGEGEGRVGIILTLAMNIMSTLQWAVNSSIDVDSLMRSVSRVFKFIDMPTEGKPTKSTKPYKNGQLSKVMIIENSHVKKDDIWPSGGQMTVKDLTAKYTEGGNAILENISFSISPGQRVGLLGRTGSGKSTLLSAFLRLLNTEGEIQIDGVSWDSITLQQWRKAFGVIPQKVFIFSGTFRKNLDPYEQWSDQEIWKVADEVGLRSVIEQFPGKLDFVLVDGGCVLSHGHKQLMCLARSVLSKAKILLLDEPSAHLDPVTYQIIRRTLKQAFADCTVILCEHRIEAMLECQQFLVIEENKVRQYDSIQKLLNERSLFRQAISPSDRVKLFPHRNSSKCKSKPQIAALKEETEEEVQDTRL

EC50 [µM]	SMILES
< 0.5	Nc1cc(C(F)(F)F)c2nc1-c1nnc(o1)[C@@](O)(C(F)(F)F)CCCCCN(Cc1ccc(OC(F)(F)F)cc1F)C2=O [Compound 159, (6R)-17-amino-12-[[2-fluoro-4-(trifluoromethoxy)phenyl]methyl]-6-hydroxy-6,15-bis (trifluoromethyl)-19-oxa-3,4,12,18-tetrazatricyclo [12.3.1.12,5] nonadeca-1(18),2,4,14,1 6-pentaen-13-one]
< 0.5	Nc1cc(C(F)(F)F)c2nc1-c1nnc(o1)[C@@](O)(C(F)(F)F)CCCCCN(Cc1ccc3ccccc3c1)C2=O [Compound 111, (6R)-17-Amino-6-hydroxy-12-(2-naphthylmethyl)-6,15-bis (trifluoromethyl)-19-oxa-3,4,12,18-tetrazatricyclo [12.3.1.12,5] nonadeca-1(18),2,4,14,1 6-pentaen-13-one]
0.5 to 1	COC1CCCCCCC(O)(C(F)(F)F)C2=NN=C(O2)c2nc1c(C(F)(F)F)cc2N (single isomer, unassigned) [Compound 15, 17-amino-13-methoxy-6,15-bis(trifluoromethyl)-19-oxa-3,4,18-triazatricyclo[12.3.1.12,5]nonadeca-1(18),2,4,14,16-pentaen-6-ol]
< 0.5	Nc1cc(C(F)(F)F)c2nc1-c1nnc(o1)C(O)(C(F)(F)F)CCCCCc1ccccc1-2 (single isomer, unassigned) [Compound 4, 21-amino-6,19-bis(trifluoromethyl)-23-oxa-3,4,22-triazatetracyclo[16.3.1.12,5.012,17]tricosa-1(22),2,4,12,14,16,18,20-octaen-6-ol]
< 0.5	Nc1cc(C(F)(F)F)c2nc1-c1nnc(o1)[C@@](O)(C(F)(F)F)CCCCCN(Cc1cc(F)cc(C3CCC3)c1)C2=O [Compound 248, (6R)-17-amino-12-[(3-cyclobutyl-5-fluoro-phenyl)methyl]-6-hydroxy-6,15-bis(trifluoromethyl)-19-oxa-3,4,12,18-tetrazatricyclo [12.3.1.12,5] nonadeca-1(18),2,4,14,16-pentaen-13-one]
> 1	Nc1cc(C(F)(F)F)c2nc1-c1nnc(o1)C(O)(C(F)(F)F)CCCCCCC1=NN=C2O1 (single isomer, unassigned) [Compound 33, 20-amino-6,18-bis(trifluoromethyl)-22,23-dioxa-3,4,14,15,21-pentaazatetracyclo[15.3.1.12,5.113,16]tricosa-1(21),2,4,13,15,17,19-heptaen-6-ol]
< 0.5	COC1CCCCCCC(O)(C(F)(F)F)C2=NN=C(O2)c2nc1c(C(F)(F)F)cc2N (single isomer, unassigned) [Compound 13, 17-amino-13-methoxy-6,15-bis(trifluoromethyl)-19-oxa-3,4,18-triazatricyclo[12.3.1.12,5]nonadeca-1(18),2,4,14,16-pentaen-6-ol]
< 0.5	CC1CCCCC[C@](O)(C(F)(F)F)C2=NN=C(O2)c2nc(c(C(F)(F)F)cc2N)C1 (single isomer, unassigned) [Compound 55]
< 0.5	Nc1cc(C(F)(F)F)c2nc1-c1nnc(o1)[C@@](O)(C(F)(F)F)CCCCCNC2=O [Compound 188, (6R)-17-amino-6-hydroxy-6,15-bis(trifluoromethyl)-19-oxa-3,4,12,18-tetrazatricyclo[12.3.1.12,5]nonadeca-1(18),2,4,14,16-pentaen-13-one]
> 1	Cc1cnc(CN2CCCCC[C@](O)(C(F)(F)F)C3=NN=C(O3)c3nc(c(C(F)(F)F)cc3N)C2=O)cn1 [Compound 167, (6R)-- 17-amino-6-hydroxy-12-[(5-methylpyrazin-2-yl)methyl]-6,15-bis (trifluoromethyl)-19-oxa-3,4,12,18-tetrazatricyclo [12.3.1.12,5] nonadeca-1(18),2,4,14,1 6-pentaen-13-one]
< 0.5	Nc1cc(C(F)(F)F)c2nc1-c1nnc(o1)[C@@](O)(C(F)(F)F)CCCCCN(Cc1ccc(C3(C(F)(F)F)CC3)cc1)C2=O [Compound 151]
< 0.5	COc1ccc(CN2CCCCC[C@](O)(C(F)(F)F)C3=NN=C(O3)c3nc(c(C(F)(F)F)cc3N)C2=O)cc1 [Compound 76, (6R)-17-Amino-6-hydroxy-12-[(4-methoxyphenyl)methyl]-6,15-bis (trifluoromethyl)-19-oxa-3,4,12,18-tetrazatricyclo [12.3.1.12,5] nonadeca-1(18),2,4,14,16-pentaen-13-one]
< 0.5	CC1CCCCCCC(O)(C(F)(F)F)C2=NN=C(O2)c2nc1c(C(F)(F)F)cc2N (single isomer, unassigned) [Compound 18, 17-amino-13-methyl-6,15-bis(trifluoromethyl)-19-oxa-3,4,18-triazatricyclo[12.3.1.12,5]nonadeca-1(18),2,4,14,16-pentaen-6-ol]
< 0.5	CC1(N2CCCCC[C@](O)(C(F)(F)F)C3=NN=C(O3)c3nc(c(C(F)(F)F)cc3N)C2=O)CC1 [Compound 94, (6R)-17-Amino-6-hydroxy-12-(1-methylcyclopropyl)-6,15-bis (trifluoromethyl)-19-oxa-3,4,12,18-tetrazatricyclo [12.3.1.12,5] nonadeca-1(18),2,4,14,1 6-pentaen-13-one]
< 0.5	Nc1cc(C(F)(F)F)c2nc1-c1nnc(o1)C(O)(C(F)(F)F)CCCCCCC2O (single isomer, unassigned) [Compound 10, 17-amino-6,15-bis(trifluoromethyl)-19-oxa-3,4,18-triazatricyclo[12.3.1.12,5]nonadeca-1(18),2,4,14,16-pentaene-6,13-diol]
< 0.5	N#CC1CCCCc2ccc(F)c(c2)C(O)(C(F)(F)F)C2=NN=C(O2)c2nc1c(C(F)(F)F)cc2N (single isomer, unassigned) [Compound 68, 20-amino-8-fluoro-6-hydroxy-6,18-bis(trifluoromethyl)-23-oxa-3,4,21-triazatetracyclo[15.3.1.12,5.17,11]tricosa-1(21),2,4,7,9,11(22),17,19-octaene-16-carbonitrile]
< 0.5	Nc1cc(C(F)(F)F)c2nc1-c1nnc(o1)[C@@](O)(C(F)(F)F)CCCCCN(Cc1ccc(OC(F)(F)F)cc1)C2=O [Compound 106, (6R)-17-Amino-6-hydroxy-12-[[4-(trifluoromethoxy)phenyl]methyl]-6,15-bis (trifluorom 19-oxa-ethyl)-3,4,12,18-tetrazatricyclo [12.3.1.12,5] nonadeca-1(18),2,4,14,1 6-pentaen-13-one]
< 0.5	Nc1cc(C(F)(F)F)c2nc1-c1nnc(o1)[C@@](O)(C(F)(F)F)CCCC(=O)CCC2(F)F [Compound 42, (6R)-17-Amino-13,13-difluoro-6-hydroxy-6,15-bis(trifluoromethyl)-19-oxa-3,4,18-triazatricyclo[12.3.1.12,5]nonadeca-1(18),2,4,14,16-pentaen-10-one]
< 0.5	CC(C)(C)CN1CCCCC[C@](O)(C(F)(F)F)C2=NN=C(O2)c2nc(c(C(F)(F)F)cc2N)C1=O [Compound 80, (6R)-17-Amino-12-(2,2-dimethylpropyl)-6-hydroxy-6,15-bis (trifluoromethyl)-19-oxa-3,4,12,18-tetrazatricyclo [12.3.1.12,5] nonadeca-1(18),2,4,14,1 6-pentaen-13-one]
< 0.5	CC(C)(C)[C@H]1CC[C@H](N2CCCCC[C@](O)(C(F)(F)F)C3=NN=C(O3)c3nc(c(C(F)(F)F)cc3N)C2=O)CC1 [Compound 97, (6R)-17-Amino-12-(trans-4-tert-butylcyclohexyl)-6-hydroxy-6,15-bis (trifluoromethyl)-19-oxa-3,4,12,18-tetrazatricyclo [12.3.1.12,5] nonadeca-1(18),2,4,14,1 6-pentaen-13-one]
> 1	Nc1cc(C(F)(F)F)c2nc1-c1nnc(o1)C(O)(C(F)(F)F)CCC(=O)CCCC2=O (single isomer, unassigned) [Compound 35, 17-amino-6-hydroxy-6,15-bis(trifluoromethyl)-19-oxa-3,4,18-triazatricyclo[12.3.1.12,5]nonadeca-1(18),2,4,14,16-pentaene-9,13-dione]
< 0.5	CC1(C)CCC2CCCC[C@](O)(C(F)(F)F)C3=NN=C(O3)c3nc(c(C(F)(F)F)cc3N)C(=O)N21 (single isomer, unassigned) [Compound 115]
< 0.5	Nc1cc(C(F)(F)F)c2nc1-c1nnc(o1)C(O)(C(F)(F)F)CCCCCCC2(O)C(F)(F)F (single isomer, unassigned) [Compound 26, 17-amino-6,13,15-tris(trifluoromethyl)-19-oxa-3,4,18-triazatricyclo[12.3.1.12,5]nonadeca-1(18),2,4,14,16-pentaene-6,13-diol]
< 0.5	Nc1cc(C(F)(F)F)c2nc1-c1nnc(o1)[C@@](O)(C(F)(F)F)CCCCCCC2=O [Compound 6, (6R)-17-amino-6-hydroxy-6,15-bis(trifluoromethyl)-19-oxa-3,4,18-triazatricyclo[12.3.1.12,5]nonadeca-1(18),2,4,14,16-pentaen-13-one]
< 0.5	Cc1c(CN2CCCCC[C@](O)(C(F)(F)F)C3=NN=C(O3)c3nc(c(C(F)(F)F)cc3N)C2=O)cccc1OC(F)(F)F [Compound 180, (6R)-17-amino-6-hydroxy-12-[[2-methyl-3-(trifluoromethoxy)phenyl]methyl]-6,15-bis(trifluoromethyl)-19-oxa-3,4,12,18-tetrazatricyclo [12.3.1.12,5] nonadeca-1(18),2,4,14,1 6-pentaen-13-one]
< 0.5	Nc1cc(C(F)(F)F)c2nc1-c1nnc(o1)[C@@](O)(C(F)(F)F)CCCCCN(Cc1cc(F)cc(C(F)(F)F)c1)C2=O [Compound 258, (6R)-17-amino-12-[[3-fluoro-5-(trifluoromethyl)phenyl]methyl]-6-hydroxy-6,15-bis(trifluoromethyl)-19-oxa-3,4,12,18-tetrazatricyclo [12.3.1.12,5] nonadeca-1(18),2,4,14,16-pentaen-13-one]
